Experimental data reported in article PMC2763540 (Chemistry & biology, 2009).
“And” between values parts separate entries of the source, which are not always exact repeats. Identical values can stand only once. “Also recorded” adds a separate entry of the source. Like-named read-outs stand apart in the source and are kept apart here.

Tests used:
[1] = test system: hoiamide A-induced elevation of neuronal [Na+]i in neocortical neurons; assay type: cell-based, mouse (Swiss-Webster)
[2] = test system: neurotoxin site 2 on VGSCs; details: cited from earlier work
[3] = test system: voltage-gated sodium channels; assay type: cell-based, mouse (Swiss-Webster)
[4] = test system: neurotoxin site 5 on VGSCs; details: cited from earlier work
[5] = test system: neurotoxin site 2 on VGSCs; assay type: cell-based, mouse (Swiss-Webster)
[6] = test system: neurotoxin site 2 on VGSCs; assay type: binding, mouse (Swiss-Webster)
[7] = test system: cancer cells
[8] = test system: mouse neocortical neurons
[9] = test system: voltage-gated sodium channels; details: cited from earlier work

C[C@]12N[C@H](Cc3ccccc31)c1ccccc12 [MK-801]
effect on hoiamide A-induced elevation of neuronal [Na+]i [1]: partial, but statistically significant, decrease

NS(=O)(=O)c1cccc2c1c([N+](=O)[O-])cc1nc(O)c(O)nc12 [NBQX]
effect on hoiamide A-induced Na+ influx [1]: no effect

NC1=N[C@H](O)[C@H]2[C@H]3O[C@]4(O)O[C@@H]([C@@H](O)[C@@]2(N1)[C@@H]4O)[C@]3(O)CO [TTX, tetrodotoxin]
effect on hoiamide A-induced elevation of neuronal [Na+]i [1]: eliminated the hoiamide A-induced elevation of neuronal [Na^+]i; also recorded: inhibition of hoiamide A-induced elevation of neuronal [Na^+]i

C=C(C=O)C[C@@H]1C[C@H](O)[C@]2(C)O[C@@H]3C[C@@H]4O[C@@H]5C[C@]6(C)O[C@]7(C)CC[C@@H]8O[C@@H]9C[C@]%10(C)O[C@@H]%11C(C)=CC(=O)O[C@H]%11C[C@H]%10O[C@H]9C[C@@H](C)[C@H]8O[C@H]7C[C@H]6O[C@H]5C/C=C\[C@H]4O[C@H]3C[C@H]2O1 [brevetoxin]
effect on [3H]BTX specific binding (allosteric) [2]: dramatically increased

CC1(C)[C@H](C(=O)O[C@H](C#N)c2cccc(Oc3ccccc3)c2)[C@@H]1C=C(Br)Br [deltamethrin]
sodium influx when given alone [3]: inactive alone
effect on [3H]BTX specific binding (allosteric) [2]: dramatically increased
effect on maximum response of hoiamide A-induced sodium influx [1]: significantly increased the maximum response; also recorded: enhance hoiamide A-induced elevation of neuronal [Na^+]i

C=CC/C=C\C=C/[C@H]1O[C@H]2C[C@H]3O[C@H]4CC[C@H]5O[C@H]6C[C@@]7(C)O[C@@]8(C)[C@@H](O)C[C@H](CCCO)O[C@@H]8C[C@@H]7O[C@@H]6C[C@@H]5O[C@]4(C)C[C@]3(C)O[C@@H]2C=C[C@]1(C)O [gambierol]
effect on PbTx-1 induced elevation of neuronal [Na+]i [4]: inhibited the full agonist PbTx-1 induced elevation of neuronal [Na^+]i
type of agonism at neurotoxin site 5 [4]: low efficacy partial agonist at neurotoxin site 5

CCC[C@@H](C)[C@H](O)[C@H](C)[C@H]1OC(=O)[C@H]([C@@H](C)O)NC(=O)[C@H](C(C)C)OC(=O)[C@H](C)[C@H](O)[C@H]([C@@H](C)CC)NC(=O)[C@@]2(C)CSC(=N2)[C@@]2(C)CSC(=N2)c2csc(n2)C[C@H](OC)[C@@H]1C [hoiamide A]
elevation of neuronal [Na+]i / sodium influx [3]: rapid and concentration-dependent elevation of neuronal [Na^+]i; also recorded: VGSC activator; also recorded: maximum sodium influx that was less than that of the full agonist, batrachotoxin
maximum response, elevation of neuronal [Na+]i [3]: less than 20 mM
relative efficacy for elevation of neuronal [Na+]i [3]: 0.38
type of agonism at neurotoxin site 2 on VGSCs [3]: partial agonist at neurotoxin site 2; also recorded: partial agonism at the neurotoxin site 2 on VGSCs
EC50 ([3]; read-out: EC50 for hoiamide-induced sodium influx): 2310 nM
effect on batrachotoxin-induced sodium influx (SBFI AUC) [5]: concentration-dependent reduction in batrachotoxin-induced sodium influx; also recorded: reversal of batrachotoxin (30 nM)-induced elevation of neuronal [Na^+]i
inhibition of [3H]BTX specific binding [6]: concentration-dependent inhibition of [^3H]BTX specific binding; also recorded: inhibit the specific binding of [^3H]BTX to VGSCs
IC50 ([6]; read-out: IC50, inhibition of [3H]batrachotoxin binding): 92.8 nM
change of hoiamide A EC50 value by modulator [1]: without altering the hoiamide A EC50 value; also recorded: no corresponding effect on the hoiamide A EC50 value
maximum response of hoiamide A-induced sodium influx, AUC [1]: 89.9 fluorescence x min and 141.4 fluorescence x min and 143.4 fluorescence x min
cytotoxicity to cancer cells [7]: modest cytotoxicity
IC50 [8]: 47.5 nM

COc1ccc(C(=O)O[C@H]2CC[C@@]3(C)[C@@H]4CC[C@H]5[C@]6(O)C[C@H](O)[C@@]7(O)[C@@H](CN8C[C@@H](C)CC[C@H]8[C@@]7(C)O)[C@]6(O)C[C@@]53O[C@]24O)cc1OC [veratridine]
inhibition of [3H]BTX specific binding [6]: much less potent than hoiamide A; also recorded: inhibit the specific binding of [^3H]BTX to VGSCs
IC50 ([6]; read-out: IC50, inhibition of [3H]BTX specific binding): 33000 nM

batrachotoxin
elevation of neuronal [Na+]i / sodium influx [3]: rapid and concentration-dependent elevation of neuronal [Na^+]i
maximum response, elevation of neuronal [Na+]i [3]: greater than 60 mM
EC50 ([3]; read-out: EC50 for batrachotoxin-induced elevation of neuronal [Na+]i): 11.4 nM
type of agonism at neurotoxin site 2 [9]: full agonist at neurotoxin site 2

brevetoxin 3 [PbTx-3]
sodium influx when given alone [3]: inactive alone
effect on maximum response of hoiamide A-induced sodium influx [1]: significant increase in the maximum response; also recorded: enhance hoiamide A-induced elevation of neuronal [Na^+]i
